{
  "source": "paper PMC6611794",
  "about": "“Development of a high-throughput strategy for discovery of potent analogues of antibiotic lysocin E” (Nature Communications, 2019)",
  "origin": "cited, not measured here",
  "test_system": "S. aureus",
  "design": "method as in PMID 25485686",
  "conditions": "S. aureus-infected mice; cited from earlier work",
  "from_the_text": "Lysocin E (1, Fig. 1a) was isolated from Lysobacter sp. as a new antibiotic and structurally determined to be a 37-membered depsipeptide (molecular weight = 1618 Da) with an N-methylated amide and ester linkages. The macrocyclic core of 12 residues contains four different non-proteinogenic D-amino acids (D-Arg-2/7, N-Me-D-Phe-5, D-Gln-9, D-Trp-10) and is appended with (R)-3-hydroxy-5-methylhexanamide. […] Screening of the additives ind ...",
  "data": [
    {"smiles": "CN[C@H](CC(C)C)C(=O)N[C@H]1C(=O)N[C@@H](CC(N)=O)C(=O)N[C@H]2C(=O)N[C@H]3C(=O)N[C@H](C(=O)N[C@H](C(=O)O)c4cc(O)cc(O)c4-c4cc3ccc4O)[C@H](O)c3ccc(c(Cl)c3)Oc3cc2cc(c3O[C@@H]2O[C@H](CO)[C@@H](O)[C@H](O)[C@H]2O[C@H]2C[C@](C)(N)[C@H](O)[C@H](C)O2)Oc2ccc(cc2Cl)[C@H]1O", "note": "[vancomycin, reference compound]", "values": [
      {"measurement": "ED50", "value": 5.8, "unit": "mg/kg"}
    ]}
  ]
}
